In patent US9499550B2 (BRISTOL-MYERS SQUIBB COMPANY, priority 2012, dated 2016):

Key:
[1] = tested on: HCV genotype 1b (Con1) replicon in HUH-7 cells; assay: HCV replicon luciferase reporter assay, genotype 1b; format: cell-based; conditions: Hepatitis C virus, Huh-7, 72 h, HCV genotype 1b replicon luciferase assay, 3 days incubation, range class, read-out: LE_1b (EC50, range)
Outline: (§1)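 Replicon inhibition for both genotypes was measured as Renilla luciferase signal (EnduRen, 7.5 μM final, 2 h) after 3-day, 37° C exposure of replicon-bearing HUH-7 cells in 4% FCS DMEM, 0.5% DMSO. The 1b construct carries S1179I; the 1a H77 construct carries P1496L and S2204I. Twenty-point, 3-fold dilutions were fitted four-parametrically for EC50, and CC50 was taken from multiplexed Cell Titer-Blue.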

[2] = tested on: HCV genotype 1a (H77 strain) replicon in HUH-7 cells; assay: HCV replicon luciferase reporter assay, genotype 1a; format: cell-based; conditions: Hepatitis C virus, Huh-7, 72 h, HCV genotype 1a replicon luciferase assay, 3 days incubation, range class, read-out: LE_1a (EC50, range)
Outline: as §1

C[C@@H]1CC/C=C\[C@@H]2C[C@@]2(C(=O)NS(=O)(=O)C2(C)CC2)NC(=O)[C@@H]2C[C@@H](Oc3ncc(OCC(F)F)c4ccccc34)CN2C(=O)[C@@H](NC(=O)OC(C)(C)C(F)(F)F)[C@H](C)C1 [Compound 1030, 1,1,1-trifluoro-2-methylpropan-2-yl((2R,6S,7R,9R,13aS,14aR,16aS,Z)-2-((4-(2,2-difluoroethoxyl)isoquinolin-1-yl)oxy)-7,9-dimethyl-14a-(((1-methylcyclopropyl)sulfonyl)carbamoyl)-5,16-dioxo-1,2,3,5,6,7,8,9,10,11,13a,14,14a,15,16,16a-hexadecahydrocyclopropa[e]pyrrolo[1,2-a][1,4]diazacyclopentadecin-6-yl)carbamate] showed an EC50 [1] of under 5.46 nM and an EC50 [2] of under 5.46 nM.
For C[C@H]1CC/C=C\[C@@H]2C[C@@]2(C(=O)NS(=O)(=O)C2CC2)NC(=O)[C@@H]2C[C@@H](Oc3ncc(OCC(F)F)c4ccccc34)CN2C(=O)[C@@H](NC(=O)OC(C)(C)C(F)(F)F)[C@H](C)C1 [Compound 1031, 1,1,1-trifluoro-2-methylpropan-2-yl((2R,6S,7R,9S,13aS,14aR,16aS,Z)-14a-((cyclopropylsulfonyl)carbamoyl)-2-((4-(2,2-difluoroethoxyl)isoquinolin-1-yl)oxy)-7,9-dimethyl-5,16-dioxo-1,2,3,5,6,7,8,9,10,11,13a,14,14a,15,16,16a-hexadecahydrocyclopropa[e]pyrrolo[1,2-a][1,4]diazacyclopentadecin-6-yl)carbamate], the EC50 [1] was 4.82 to 103 nM and the EC50 [2] was 4.82 to 103 nM.
C[C@@H]1CC/C=C\[C@@H]2C[C@@]2(C(=O)NS(=O)(=O)C2CC2)NC(=O)[C@@H]2C[C@@H](Oc3ncc(OCC(F)F)c4ccccc34)CN2C(=O)[C@@H](NC(=O)OC(C)(C)C(F)(F)F)[C@H](C)C1 [Compound 1032, 1,1,1-trifluoro-2-methylpropan-2-yl((2R,6S,7R,9R,13aS,14aR,16aS,Z)-14a-((cyclopropylsulfonyl)carbamoyl)-2-((4-(2,2-difluoroethoxyl)isoquinolin-1-yl)oxy)-7,9-dimethyl-5,16-dioxo-1,2,3,5,6,7,8,9,10,11,13a,14,14a,15,16,16a-hexadecahydrocyclopropa[e]pyrrolo[1,2-a][1,4]diazacyclopentadecin-6-yl)carbamate] was tested, and the EC50 [1] was under 5.46 nM and the EC50 [2] was under 5.46 nM.
With COCCOc1cnc(O[C@@H]2C[C@H]3C(=O)N[C@]4(C(=O)NS(=O)(=O)C5CC5)C[C@H]4/C=C\CC[C@@H](C)C[C@@H](C)[C@H](NC(=O)OC(C)(C)C)C(=O)N3C2)c2ccccc12 [Compound 1033, tert-butyl ((2R,6S,7R,9R,13aS,14aR,16aS,Z)-14a-((cyclopropylsulfonyl)carbamoyl)-2-((4-(2-methoxyethoxyl)isoquinolin-1-yl)oxy)-7,9-dimethyl-5,16-dioxo-1,2,3,5,6,7,8,9,10,11,13a,14,14a,15,16,16a-hexadecahydrocyclopropa[e]pyrrolo[1,2-a][1,4]diazacyclopentadecin-6-yl)carbamate] the EC50 [1] was under 5.46 nM and the EC50 [2] was under 5.46 nM.
C[C@@H]1CC/C=C\[C@@H]2C[C@@]2(C(=O)NS(=O)(=O)C2CC2)NC(=O)[C@@H]2C[C@@H](Oc3ncc(OCC(F)F)c4ccccc34)CN2C(=O)[C@@H](NC(=O)O[C@H](C)C(F)(F)F)[C@H](C)C1 [Compound 1034, (R)-1,1,1-trifluoropropan-2-yl((2R,6S,7R,9R,13aS,14aR,16aS,Z)-14a-((cyclopropylsulfonyl)carbamoyl)-2-((4-(2,2-difluoroethoxyl)isoquinolin-1-yl)oxy)-7,9-dimethyl-5,16-dioxo-1,2,3,5,6,7,8,9,10,11,13a,14,14a,15,16,16a-hexadecahydrocyclopropa[e]pyrrolo[1,2-a][1,4]diazacyclopentadecin-6-yl)carbamate] was tested, and the EC50 [1] was under 5.46 nM and the EC50 [2] was under 5.46 nM.
With C[C@H]1CC/C=C\[C@@H]2C[C@@]2(C(=O)NS(=O)(=O)C2(C)CC2)NC(=O)[C@@H]2C[C@@H](Oc3ncc(OCC(F)F)c4ccccc34)CN2C(=O)[C@@H](NC(=O)O[C@H](C)C(F)(F)F)[C@H](C)C1 [Compound 1035, (R)-1,1,1-trifluoropropan-2-yl ((2R,6S,7R,9S,13aS,14aR,16aS,Z)-2-((4-(2,2-difluoroethoxyl)isoquinolin-1-yl)oxy)-7,9-dimethyl-14a-(((1-methylcyclopropyl)sulfonyl)carbamoyl)-5,16-dioxo-1,2,3,5,6,7,8,9,10,11,13a,14,14a,15,16,16a-hexadecahydrocyclopropa[e]pyrrolo[1,2-a][1,4]diazacyclopentadecin-6-yl)carbamate] the EC50 [1] was 4.82 to 103 nM and the EC50 [2] was 4.82 to 103 nM.
For C[C@@H]1CC/C=C\[C@@H]2C[C@@]2(C(=O)NS(=O)(=O)C2(C)CC2)NC(=O)[C@@H]2C[C@@H](Oc3ncc(OCC(F)F)c4ccccc34)CN2C(=O)[C@@H](NC(=O)O[C@H](C)C(F)(F)F)[C@H](C)C1 [Compound 1036, (R)-1,1,1-trifluoropropan-2-yl ((2R,6S,7R,9R,13aS,14aR,16aS,Z)-2-((4-(2,2-difluoroethoxyl)isoquinolin-1-yl)oxy)-7,9-dimethyl-14a-(((1-methylcyclopropyl)sulfonyl)carbamoyl)-5,16-dioxo-1,2,3,5,6,7,8,9,10,11,13a,14,14a,15,16,16a-hexadecahydrocyclopropa[e]pyrrolo[1,2-a][1,4]diazacyclopentadecin-6-yl)carbamate], the EC50 [1] was under 5.46 nM and the EC50 [2] was under 5.46 nM.
COCCOc1cnc(O[C@@H]2C[C@H]3C(=O)N[C@]4(C(=O)NS(=O)(=O)C5(C)CC5)C[C@H]4/C=C\CC[C@H](C)C[C@@H](C)[C@H](NC(=O)OC(C)(C)C(F)(F)F)C(=O)N3C2)c2ccccc12 [Compound 1037, 1,1,1-trifluoro-2-methylpropan-2-yl((2R,6S,7R,9S,13aS,14aR,16aS,Z)-2-((4-(2-methoxyethoxyl)isoquinolin-1-yl)oxy)-7,9-dimethyl-14a-(((1-methylcyclopropyl)sulfonyl)carbamoyl)-5,16-dioxo-1,2,3,5,6,7,8,9,10,11,13a,14,14a,15,16,16a-hexadecahydrocyclopropa[e]pyrrolo[1,2-a][1,4]diazacyclopentadecin-6-yl)carbamate] was tested, and the EC50 [1] was 4.82 to 103 nM and the EC50 [2] was 4.82 to 103 nM.
Molecule COCCOc1cnc(O[C@@H]2C[C@H]3C(=O)N[C@]4(C(=O)NS(=O)(=O)C5(C)CC5)C[C@H]4/C=C\CC[C@@H](C)C[C@@H](C)[C@H](NC(=O)OC(C)(C)C(F)(F)F)C(=O)N3C2)c2ccccc12 [Compound 1038, 1,1,1-trifluoro-2-methylpropan-2-yl((2R,6S,7R,9R,13aS,14aR,16aS,Z)-2-((4-(2-methoxyethoxyl)isoquinolin-1-yl)oxy)-7,9-dimethyl-14a-(((1-methylcyclopropyl)sulfonyl)carbamoyl)-5,16-dioxo-1,2,3,5,6,7,8,9,10,11,13a,14,14a,15,16,16a-hexadecahydrocyclopropa[e]pyrrolo[1,2-a][1,4]diazacyclopentadecin-6-yl)carbamate] has an EC50 [1] of under 5.46 nM and an EC50 [2] of under 5.46 nM.
In the case of COCCOc1cnc(O[C@@H]2C[C@H]3C(=O)N[C@]4(C(=O)NS(=O)(=O)C5(C)CC5)C[C@H]4/C=C\CC[C@@H](C)C[C@@H](C)[C@H](NC(=O)OC4C[C@@H]5C[C@H]5C4)C(=O)N3C2)c2ccccc12 [Compound 1039, (1S,5S)-bicyclo[3.1.0]hexan-3-yl((2R,6S,7R,9R,13aS,14aR,16aS,Z)-2-((4-(2-methoxyethoxyl)isoquinolin-1-yl)oxy)-7,9-dimethyl-14a-(((1-methylcyclopropyl)sulfonyl)carbamoyl)-5,16-dioxo-1,2,3,5,6,7,8,9,10,11,13a,14,14a,15,16,16a-hexadecahydrocyclopropa[e]pyrrolo[1,2-a][1,4]diazacyclopentadecin-6-yl)carbamate], the EC50 [1] is reported as under 5.46 nM and the EC50 [2] is reported as under 5.46 nM.
In the case of COCCOc1cnc(O[C@@H]2C[C@H]3C(=O)N[C@]4(C(=O)NS(=O)(=O)C5CC5)C[C@H]4/C=C\CC[C@@H](C)C[C@@H](C)[C@H](NC(=O)OC4C[C@@H]5C[C@H]5C4)C(=O)N3C2)c2ccccc12 [Compound 1040, (1S,5S)-bicyclo[3.1.0]hexan-3-yl((2R,6S,7R,9R,13aS,14aR,16aS,Z)-14a-((cyclopropylsulfonyl)carbamoyl)-2-((4-(2-methoxyethoxyl)isoquinolin-1-yl)oxy)-7,9-dimethyl-5,16-dioxo-1,2,3,5,6,7,8,9,10,11,13a,14,14a,15,16,16a-hexadecahydrocyclopropa[e]pyrrolo[1,2-a][1,4]diazacyclopentadecin-6-yl)carbamate], the EC50 [1] is reported as under 5.46 nM and the EC50 [2] is reported as under 5.46 nM.
Molecule COc1cnc(O[C@@H]2C[C@H]3C(=O)N[C@]4(C(=O)NS(=O)(=O)C5(CF)CC5)C[C@H]4/C=C\CC[C@@H](C)C[C@@H](C)[C@H](NC(=O)OC4COC4)C(=O)N3C2)c2ccccc12 [Compound 1041, oxetan-3-yl ((2R,6S,7R,9R,13aS,14aR,16aS,Z)-14a-(((1-(fluoromethyl)cyclopropyl)sulfonyl)carbamoyl)-2-((4-methoxyisoquinolin-1-yl)oxy)-7,9-dimethyl-5,16-dioxo-1,2,3,5,6,7,8,9,10,11,13a,14,14a,15,16,16a-hexadecahydrocyclopropa[e]pyrrolo[1,2-a][1,4]diazacyclopentadecin-6-yl)carbamate] has an EC50 [1] of under 5.46 nM and an EC50 [2] of 4.82 to 103 nM.
COc1cnc(O[C@@H]2C[C@H]3C(=O)N[C@]4(C(=O)NS(=O)(=O)C5(CF)CC5)C[C@H]4/C=C\CC[C@@H](C)C[C@@H](C)[C@H](NC(=O)OC(C)(C)C(C)(F)F)C(=O)N3C2)c2ccccc12 [Compound 1043, 3,3-difluoro-2-methylbutan-2-yl((2R,6S,7R,9R,13aS,14aR,16aS,Z)-14a-(((1-(fluoromethyl)cyclopropyl)sulfonyl)carbamoyl)-2-((4-methoxyisoquinolin-1-yl)oxy)-7,9-dimethyl-5,16-dioxo-1,2,3,5,6,7,8,9,10,11,13a,14,14a,15,16,16a-hexadecahydrocyclopropa[e]pyrrolo[1,2-a][1,4]diazacyclopentadecin-6-yl)carbamate] was tested, and the EC50 [1] was under 5.46 nM and the EC50 [2] was under 5.46 nM.
